# Assay results taken from patent US20100041089A1, “IMPROVED METHOD FOR DETECTING CHEMICAL […]” (priority 2006, published 2010).
# System: yeast genes (expressed mRNA)
# Test: DNA chip measurement of expressed mRNA of yeast genes after culture with a toxic chemical substance
# Assay type: cell-based, Saccharomyces cerevisiae S288C
# Details: for The level of expressed mRNA in the presence of chemical substance/The level of expressed mRNA in the absence of chemical substance: cultured two hours with substance; for level of expressed mRNA in the presence of chemical substance / level in the absence of chemical substance: cultured two hours with the chemical substance
# Summary of the method: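 Yeast S288C, YPD 25° C; toxicant at log phase, 2 h, sublethal growth-inhibiting conc.; no-chemical control. Hot SDS/acetate RNA extraction, oligo-dT mRNA, Cy3/Cy5-dUTP RT. Whole-genome chip, 65° C >12 h. Readout: treated/control intensity ratio, ≥2 significant.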
smiles,measurement,setting,value
"Cl[C@H]1[C@H](Cl)[C@@H](Cl)[C@@H](Cl)[C@H](Cl)[C@H]1Cl [(7), γ-Hexachlorocyclohexane]",The level of expressed mRNA in the presence of chemical substance/The level of expressed mRNA in the absence of chemical substance,yeast gene YJL151C,1.4
same,The level of expressed mRNA in the presence of chemical substance/The level of expressed mRNA in the absence of chemical substance,yeast gene YJL152W,1.2
same,The level of expressed mRNA in the presence of chemical substance/The level of expressed mRNA in the absence of chemical substance,yeast gene YJL161W,3.6
same,The level of expressed mRNA in the presence of chemical substance/The level of expressed mRNA in the absence of chemical substance,yeast gene YJL171C,1.4
same,The level of expressed mRNA in the presence of chemical substance/The level of expressed mRNA in the absence of chemical substance,yeast gene YJR008W,2.9
same,level of expressed mRNA in the presence of chemical substance / level in the absence of chemical substance,yeast gene YJR030C,0.7
same,The level of expressed mRNA in the presence of chemical substance/The level of expressed mRNA in the absence of chemical substance,yeast gene YJR054W,0.9
same,level of expressed mRNA in the presence of chemical substance / level in the absence of chemical substance,yeast gene YKL051W,0.6
same,The level of expressed mRNA in the presence of chemical substance/The level of expressed mRNA in the absence of chemical substance,yeast gene YKL071W,3.7
same,The level of expressed mRNA in the presence of chemical substance/The level of expressed mRNA in the absence of chemical substance,yeast gene YKL086W,0.7
same,level of expressed mRNA in the presence of chemical substance / level in the absence of chemical substance,yeast gene YKL097C,0.8
same,level of expressed mRNA in the presence of chemical substance / level in the absence of chemical substance,yeast gene YKL100C,1.2
same,The level of expressed mRNA in the presence of chemical substance/The level of expressed mRNA in the absence of chemical substance,yeast gene YKL151C,5.6
same,The level of expressed mRNA in the presence of chemical substance/The level of expressed mRNA in the absence of chemical substance,yeast gene YKL153W,1.1
same,The level of expressed mRNA in the presence of chemical substance/The level of expressed mRNA in the absence of chemical substance,yeast gene YKL195W,2.1
same,level of expressed mRNA in the presence of chemical substance / level in the absence of chemical substance,yeast gene YKR040C,0.9
same,The level of expressed mRNA in the presence of chemical substance/The level of expressed mRNA in the absence of chemical substance,yeast gene YKR091W,1.3
same,The level of expressed mRNA in the presence of chemical substance/The level of expressed mRNA in the absence of chemical substance,yeast gene YLR054C,1.1
same,The level of expressed mRNA in the presence of chemical substance/The level of expressed mRNA in the absence of chemical substance,yeast gene YLR149C,1.6
same,The level of expressed mRNA in the presence of chemical substance/The level of expressed mRNA in the absence of chemical substance,yeast gene YLR152C,1.4
same,The level of expressed mRNA in the presence of chemical substance/The level of expressed mRNA in the absence of chemical substance,yeast gene YLR194C,1.0
same,level of expressed mRNA in the presence of chemical substance / level in the absence of chemical substance,yeast gene YLR226W,1.9
same,The level of expressed mRNA in the presence of chemical substance/The level of expressed mRNA in the absence of chemical substance,yeast gene YLR324W,1.0
same,level of expressed mRNA in the presence of chemical substance / level in the absence of chemical substance,yeast gene YLR338W,0.9
same,The level of expressed mRNA in the presence of chemical substance/The level of expressed mRNA in the absence of chemical substance,yeast gene YLR350W,1.2
same,The level of expressed mRNA in the presence of chemical substance/The level of expressed mRNA in the absence of chemical substance,yeast gene YLR387C,1.1
same,level of expressed mRNA in the presence of chemical substance / level in the absence of chemical substance,yeast gene YLR392C,1.0
same,level of expressed mRNA in the presence of chemical substance / level in the absence of chemical substance,yeast gene YLR415C,1.2
same,level of expressed mRNA in the presence of chemical substance / level in the absence of chemical substance,yeast gene YLR427W,1.2
same,The level of expressed mRNA in the presence of chemical substance/The level of expressed mRNA in the absence of chemical substance,yeast gene YLR460C,1.1
same,level of expressed mRNA in the presence of chemical substance / level in the absence of chemical substance,yeast gene YML013W,1.3
same,level of expressed mRNA in the presence of chemical substance / level in the absence of chemical substance,yeast gene YML029W,1.1
same,level of expressed mRNA in the presence of chemical substance / level in the absence of chemical substance,yeast gene YML041C,1.4
same,level of expressed mRNA in the presence of chemical substance / level in the absence of chemical substance,yeast gene YML079W,1.2
same,The level of expressed mRNA in the presence of chemical substance/The level of expressed mRNA in the absence of chemical substance,yeast gene YML117W,0.7
same,The level of expressed mRNA in the presence of chemical substance/The level of expressed mRNA in the absence of chemical substance,yeast gene YMR009W,1.9
same,The level of expressed mRNA in the presence of chemical substance/The level of expressed mRNA in the absence of chemical substance,yeast gene YMR067C,1.2
same,level of expressed mRNA in the presence of chemical substance / level in the absence of chemical substance,yeast gene YMR068W,1.5
same,level of expressed mRNA in the presence of chemical substance / level in the absence of chemical substance,yeast gene YMR071C,1.8
same,The level of expressed mRNA in the presence of chemical substance/The level of expressed mRNA in the absence of chemical substance,yeast gene YMR090W,2.7
same,The level of expressed mRNA in the presence of chemical substance/The level of expressed mRNA in the absence of chemical substance,yeast gene YMR095C,1.2
same,The level of expressed mRNA in the presence of chemical substance/The level of expressed mRNA in the absence of chemical substance,yeast gene YMR097C,1.5
same,The level of expressed mRNA in the presence of chemical substance/The level of expressed mRNA in the absence of chemical substance,yeast gene YMR102C,1.8
same,The level of expressed mRNA in the presence of chemical substance/The level of expressed mRNA in the absence of chemical substance,yeast gene YMR107W,1.2
same,level of expressed mRNA in the presence of chemical substance / level in the absence of chemical substance,yeast gene YMR160W,1.0
same,The level of expressed mRNA in the presence of chemical substance/The level of expressed mRNA in the absence of chemical substance,yeast gene YMR180C,1.7
same,The level of expressed mRNA in the presence of chemical substance/The level of expressed mRNA in the absence of chemical substance,yeast gene YMR184W,1.6
same,The level of expressed mRNA in the presence of chemical substance/The level of expressed mRNA in the absence of chemical substance,yeast gene YMR191W,2.0
same,The level of expressed mRNA in the presence of chemical substance/The level of expressed mRNA in the absence of chemical substance,yeast gene YMR295C,1.3
same,The level of expressed mRNA in the presence of chemical substance/The level of expressed mRNA in the absence of chemical substance,yeast gene YMR316W,2.0
same,level of expressed mRNA in the presence of chemical substance / level in the absence of chemical substance,yeast gene YNL026W,1.5
same,The level of expressed mRNA in the presence of chemical substance/The level of expressed mRNA in the absence of chemical substance,yeast gene YNL044W,0.9
